Test results as given in ChEMBL document CHEMBL5335837, “Reinvestigation of diphenylmethylpiperazine analogues of pyrazine as new class of Plasmodial cysteine protease inhibitors for the treatment of malaria” (RSC Med Chem, 2024).
The source made the active and inactive calls. No cut-off for these calls is given here.

Tested on: Plasmodium falciparum
Assay: Antimalarial activity against Plasmodium falciparum 3D7 assessed as reduction in parasite growth incubated for 48 to 50 hrs by microplate reader analysis
Type: functional, organism-based
Settings: Plasmodium falciparum, 3D7; read-out: IC50

Compound | IC50 [µM]
Oc1ccccc1C(c1ccc(Cl)c(Cl)c1)N1CCN(c2cnccn2)CC1 (stereo not drawn) | 2.81
Oc1ccccc1C(c1ccc(C(F)(F)F)cc1)N1CCN(c2cnccn2)CC1 (stereo not drawn) | 1.78
Cc1ccc(C(c2ccccc2O)N2CCN(c3cnccn3)CC2)cc1 (stereo not drawn) | 3.76
COc1cccc(C(c2ccc(OC(F)(F)F)cc2)N2CCN(c3cnccn3)CC2)c1O (stereo not drawn) | 3.5
COc1cccc(C(c2ccc(Cl)c(Cl)c2)N2CCN(c3cnccn3)CC2)c1O (stereo not drawn) | 4.62
COc1cccc(C(c2ccc(C(F)(F)F)cc2)N2CCN(c3cnccn3)CC2)c1O (stereo not drawn) | 3.05

Target: T1, Falcipain 2 (Plasmodium falciparum, UniProt Q9N6S8)
T1 sequence (Q9N6S8 whole entry): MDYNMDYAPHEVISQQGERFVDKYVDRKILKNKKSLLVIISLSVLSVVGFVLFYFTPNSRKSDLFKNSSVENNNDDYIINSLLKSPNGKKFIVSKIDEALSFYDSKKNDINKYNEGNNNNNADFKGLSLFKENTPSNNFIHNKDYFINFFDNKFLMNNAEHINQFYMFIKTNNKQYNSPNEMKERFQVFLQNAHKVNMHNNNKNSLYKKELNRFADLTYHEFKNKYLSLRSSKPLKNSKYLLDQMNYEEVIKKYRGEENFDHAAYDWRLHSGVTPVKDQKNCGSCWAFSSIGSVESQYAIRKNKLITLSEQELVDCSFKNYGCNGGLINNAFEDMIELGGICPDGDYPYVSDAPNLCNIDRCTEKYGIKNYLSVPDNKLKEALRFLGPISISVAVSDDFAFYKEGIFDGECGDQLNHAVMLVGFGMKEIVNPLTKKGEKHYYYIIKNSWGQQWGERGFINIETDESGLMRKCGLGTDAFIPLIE
Assay: Inhibition of Plasmodium falciparum FP2 using Z-Leu-Arg-AMC as substrate incubated for 30 mins by spectrofluorometry analysis
Settings: not given

Compound | IC50 [µM]
CC(C)C[C@H](NC(=O)[C@H]1O[C@@H]1C(=O)O)C(=O)NCCCCN=C(N)N [E-64] | 0.0544
Oc1ccccc1C(c1ccc(Cl)c(Cl)c1)N1CCN(c2cnccn2)CC1 (stereo not drawn) | 6.6
Oc1ccccc1C(c1ccc(C(F)(F)F)cc1)N1CCN(c2cnccn2)CC1 (stereo not drawn) | 8.5
COc1cccc(C(c2ccc(OC(F)(F)F)cc2)N2CCN(c3cnccn3)CC2)c1O (stereo not drawn) | 11.4
COc1cccc(C(c2ccc(C(F)(F)F)cc2)N2CCN(c3cnccn3)CC2)c1O (stereo not drawn) | 6.2

Tested on: Plasmodium falciparum
Assay: Antimalarial activity against Plasmodium falciparum 3D7 assessed as decrease in new ring formation at 3 times IC50 concentration incubated for 48 hrs by Geimsa staining based analysis
Type: functional, organism-based
Settings: not given

Compound | Activity
Oc1ccccc1C(c1ccc(Cl)c(Cl)c1)N1CCN(c2cnccn2)CC1 (stereo not drawn) | Active
Oc1ccccc1C(c1ccc(C(F)(F)F)cc1)N1CCN(c2cnccn2)CC1 (stereo not drawn) | Active
COc1cccc(C(c2ccc(C(F)(F)F)cc2)N2CCN(c3cnccn3)CC2)c1O (stereo not drawn) | Active

Tested on: Plasmodium falciparum
Assay: Resistance index, ratio of IC50 for antimalarial activity against Plasmodium falciparum 3D7 to IC50 for antimalarial activity against Plasmodium falciparum W2
Type: functional
Settings: not given

Compound | Ratio IC50
Oc1ccccc1C(c1ccc(Cl)c(Cl)c1)N1CCN(c2cnccn2)CC1 (stereo not drawn) | 0.68
Oc1ccccc1C(c1ccc(C(F)(F)F)cc1)N1CCN(c2cnccn2)CC1 (stereo not drawn) | 0.06
COc1cccc(C(c2ccc(OC(F)(F)F)cc2)N2CCN(c3cnccn3)CC2)c1O (stereo not drawn) | 1.6
COc1cccc(C(c2ccc(C(F)(F)F)cc2)N2CCN(c3cnccn3)CC2)c1O (stereo not drawn) | 0.7

Tested on: not listed separately
Assay: Selectivity index, ratio of IC50 for cytotoxicity against african green monkey vero cells to IC50 for antimalarial activity against Plasmodium falciparum W2
Type: toxicity, cell-based
Settings: read-out: Ratio IC50

Compound | selectivity ratio
Oc1ccccc1C(c1ccc(Cl)c(Cl)c1)N1CCN(c2cnccn2)CC1 (stereo not drawn) | 244
Oc1ccccc1C(c1ccc(C(F)(F)F)cc1)N1CCN(c2cnccn2)CC1 (stereo not drawn) | 31.9
COc1cccc(C(c2ccc(OC(F)(F)F)cc2)N2CCN(c3cnccn3)CC2)c1O (stereo not drawn) | 459
COc1cccc(C(c2ccc(C(F)(F)F)cc2)N2CCN(c3cnccn3)CC2)c1O (stereo not drawn) | 230

Tested on: Plasmodium falciparum
Assay: Antimalarial activity against Plasmodium falciparum 3D7 assessed as decrease in development of early trophozoite stage at 3 times IC50 incubated for 48 hrs by Geimsa staining based analysis
Type: functional, organism-based
Settings: not given

Compound | Activity
Oc1ccccc1C(c1ccc(Cl)c(Cl)c1)N1CCN(c2cnccn2)CC1 (stereo not drawn) | Active
Oc1ccccc1C(c1ccc(C(F)(F)F)cc1)N1CCN(c2cnccn2)CC1 (stereo not drawn) | Active
COc1cccc(C(c2ccc(C(F)(F)F)cc2)N2CCN(c3cnccn3)CC2)c1O (stereo not drawn) | Active

Tested on: not listed separately
Assay: Selectivity index, ratio of IC50 for cytotoxicity against african green monkey vero cells to IC50 for cytotoxicity against human A549 cells
Settings: not given

Compound | Ratio IC50
Oc1ccccc1C(c1ccc(Cl)c(Cl)c1)N1CCN(c2cnccn2)CC1 (stereo not drawn) | 16.29
Oc1ccccc1C(c1ccc(C(F)(F)F)cc1)N1CCN(c2cnccn2)CC1 (stereo not drawn) | 16.8
COc1cccc(C(c2ccc(OC(F)(F)F)cc2)N2CCN(c3cnccn3)CC2)c1O (stereo not drawn) | 21.23
COc1cccc(C(c2ccc(C(F)(F)F)cc2)N2CCN(c3cnccn3)CC2)c1O (stereo not drawn) | 8.3

Tested on: not listed separately
Assay: Selectivity index, ratio of IC50 for cytotoxicity against african green monkey vero cells to IC50 for antimalarial activity against Plasmodium falciparum 3D7
Type: toxicity, cell-based
Settings: read-out: Ratio IC50

Compound | selectivity ratio
Oc1ccccc1C(c1ccc(Cl)c(Cl)c1)N1CCN(c2cnccn2)CC1 (stereo not drawn) | 356
Oc1ccccc1C(c1ccc(C(F)(F)F)cc1)N1CCN(c2cnccn2)CC1 (stereo not drawn) | 562
COc1cccc(C(c2ccc(OC(F)(F)F)cc2)N2CCN(c3cnccn3)CC2)c1O (stereo not drawn) | 286
COc1cccc(C(c2ccc(C(F)(F)F)cc2)N2CCN(c3cnccn3)CC2)c1O (stereo not drawn) | 328

Tested on: not listed separately
Assay: Selectivity index, ratio of IC50 for cytotoxicity against human A549 cells to IC50 for antimalarial activity against Plasmodium falciparum W2
Type: toxicity, cell-based
Settings: read-out: Ratio IC50

Compound | selectivity ratio
Oc1ccccc1C(c1ccc(Cl)c(Cl)c1)N1CCN(c2cnccn2)CC1 (stereo not drawn) | 15
Oc1ccccc1C(c1ccc(C(F)(F)F)cc1)N1CCN(c2cnccn2)CC1 (stereo not drawn) | 1.89
COc1cccc(C(c2ccc(OC(F)(F)F)cc2)N2CCN(c3cnccn3)CC2)c1O (stereo not drawn) | 21.6
COc1cccc(C(c2ccc(C(F)(F)F)cc2)N2CCN(c3cnccn3)CC2)c1O (stereo not drawn) | 27.7

Tested on: Plasmodium falciparum
Assay: Antimalarial activity against Plasmodium falciparum W2 assessed as reduction in parasite growth incubated for 48 to 50 hrs by microplate reader analysis
Type: functional, organism-based
Settings: not given

Compound | IC50 [µM]
Oc1ccccc1C(c1ccc(Cl)c(Cl)c1)N1CCN(c2cnccn2)CC1 (stereo not drawn) | 4.1
Oc1ccccc1C(c1ccc(C(F)(F)F)cc1)N1CCN(c2cnccn2)CC1 (stereo not drawn) | 31.4
COc1cccc(C(c2ccc(OC(F)(F)F)cc2)N2CCN(c3cnccn3)CC2)c1O (stereo not drawn) | 2.18
COc1cccc(C(c2ccc(C(F)(F)F)cc2)N2CCN(c3cnccn3)CC2)c1O (stereo not drawn) | 4.35

Tested on: Plasmodium falciparum
Assay: Antimalarial activity against Plasmodium falciparum Dd2 assessed as inhibition of parasite growth incubated for 72 hrs by confocal microscopy analysis
Type: functional, organism-based
Settings: Dd2, 72 h

Compound | IC50 [µM]
FC(F)Oc1ccc(-c2nnc3cncc(OCCc4ccccc4)n23)cc1 | 0.54

Target: T2, Falcipain-3 (Plasmodium falciparum 3D7, UniProt Q8IIL0)
T2 sequence (Q8IIL0 whole entry): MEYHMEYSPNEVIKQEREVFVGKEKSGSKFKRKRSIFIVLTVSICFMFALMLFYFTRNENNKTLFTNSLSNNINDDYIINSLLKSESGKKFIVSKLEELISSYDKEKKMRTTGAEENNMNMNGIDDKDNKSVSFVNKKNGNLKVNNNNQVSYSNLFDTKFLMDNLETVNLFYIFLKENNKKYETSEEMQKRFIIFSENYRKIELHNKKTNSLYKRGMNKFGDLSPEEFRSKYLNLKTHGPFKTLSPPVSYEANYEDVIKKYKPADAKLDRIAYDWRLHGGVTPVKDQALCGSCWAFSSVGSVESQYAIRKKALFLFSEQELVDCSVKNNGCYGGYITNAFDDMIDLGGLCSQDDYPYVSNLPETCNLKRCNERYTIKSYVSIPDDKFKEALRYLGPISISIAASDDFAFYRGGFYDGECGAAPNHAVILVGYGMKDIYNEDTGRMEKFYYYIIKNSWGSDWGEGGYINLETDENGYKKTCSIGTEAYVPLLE
Assay: Inhibition of Plasmodium falciparum FP3 using Z-Leu-Arg-AMC as substrate incubated for 30 mins by spectrofluorometry analysis
Settings: not given

Compound | IC50 [µM]
CC(C)C[C@H](NC(=O)[C@H]1O[C@@H]1C(=O)O)C(=O)NCCCCN=C(N)N [E-64] | 0.116
Oc1ccccc1C(c1ccc(Cl)c(Cl)c1)N1CCN(c2cnccn2)CC1 (stereo not drawn) | 6.9
Oc1ccccc1C(c1ccc(C(F)(F)F)cc1)N1CCN(c2cnccn2)CC1 (stereo not drawn) | 9.6
COc1cccc(C(c2ccc(OC(F)(F)F)cc2)N2CCN(c3cnccn3)CC2)c1O (stereo not drawn) | 14.4
COc1cccc(C(c2ccc(C(F)(F)F)cc2)N2CCN(c3cnccn3)CC2)c1O (stereo not drawn) | 6.8

Tested on: not listed separately
Assay: Selectivity index, ratio of IC50 for cytotoxicity against human A549 cells to IC50 for antimalarial activity against Plasmodium falciparum 3D7
Type: toxicity, cell-based
Settings: read-out: Ratio IC50

Compound | selectivity ratio
Oc1ccccc1C(c1ccc(Cl)c(Cl)c1)N1CCN(c2cnccn2)CC1 (stereo not drawn) | 21.9
Oc1ccccc1C(c1ccc(C(F)(F)F)cc1)N1CCN(c2cnccn2)CC1 (stereo not drawn) | 33.4
COc1cccc(C(c2ccc(OC(F)(F)F)cc2)N2CCN(c3cnccn3)CC2)c1O (stereo not drawn) | 13.5
COc1cccc(C(c2ccc(C(F)(F)F)cc2)N2CCN(c3cnccn3)CC2)c1O (stereo not drawn) | 39.5

Tested on: Erythrocyte
Assay: Hemolytic activity in human RBCs at 100 uM incubated for 2 hrs by microplate reader analysis
Type: toxicity, cell-based
Settings: not given

Compound | Activity
CCN(CC)CCCC(C)Nc1ccnc2cc(Cl)ccc12 (stereo not drawn) [CHLOROQUINE] | Non-Toxic
Oc1ccccc1C(c1ccc(Cl)c(Cl)c1)N1CCN(c2cnccn2)CC1 (stereo not drawn) | Non-Toxic
Oc1ccccc1C(c1ccc(C(F)(F)F)cc1)N1CCN(c2cnccn2)CC1 (stereo not drawn) | Non-Toxic
Cc1ccc(C(c2ccccc2O)N2CCN(c3cnccn3)CC2)cc1 (stereo not drawn) | Non-Toxic
COc1cccc(C(c2ccc(OC(F)(F)F)cc2)N2CCN(c3cnccn3)CC2)c1O (stereo not drawn) | Non-Toxic
COc1cccc(C(c2ccc(Cl)c(Cl)c2)N2CCN(c3cnccn3)CC2)c1O (stereo not drawn) | Non-Toxic
COc1cccc(C(c2ccc(C(F)(F)F)cc2)N2CCN(c3cnccn3)CC2)c1O (stereo not drawn) | Non-Toxic

Tested on: Vero
Assay: Cytotoxicity against african green monkey Vero cells upto 1000 uM measured after 72 hrs by MTT assay
Type: toxicity, cell-based
Settings: chlorocebus sabaeus

Compound | Activity
Oc1ccccc1C(c1ccc(Cl)c(Cl)c1)N1CCN(c2cnccn2)CC1 (stereo not drawn) | Non-Toxic
Oc1ccccc1C(c1ccc(C(F)(F)F)cc1)N1CCN(c2cnccn2)CC1 (stereo not drawn) | Non-Toxic
COc1cccc(C(c2ccc(OC(F)(F)F)cc2)N2CCN(c3cnccn3)CC2)c1O (stereo not drawn) | Non-Toxic
COc1cccc(C(c2ccc(C(F)(F)F)cc2)N2CCN(c3cnccn3)CC2)c1O (stereo not drawn) | Non-Toxic

Tested on: A549
Assay: Anticancer activity against human A549 cells measured after 24 hrs by MTT assay
Type: functional, cell-based
Settings: A549, 24 h

Compound | IC50 [µM]
Oc1ccccc1C(c1ccc(Cl)c(Cl)c1)N1CCN(c2cnccn2)CC1 (stereo not drawn) | 61.4
Oc1ccccc1C(c1ccc(C(F)(F)F)cc1)N1CCN(c2cnccn2)CC1 (stereo not drawn) | 59.5
COc1cccc(C(c2ccc(OC(F)(F)F)cc2)N2CCN(c3cnccn3)CC2)c1O (stereo not drawn) | 47.1
COc1cccc(C(c2ccc(C(F)(F)F)cc2)N2CCN(c3cnccn3)CC2)c1O (stereo not drawn) | 120

Tested on: Plasmodium falciparum
Assay: Antimalarial activity against Plasmodium falciparum 3D7 assessed as inhibition of parasite growth incubated for 72 hrs by confocal microscopy analysis
Type: functional, organism-based
Settings: 3D7, 72 h

Compound | IC50 [µM]
FC(F)Oc1ccc(-c2nnc3cncc(OCCc4ccccc4)n23)cc1 | 0.31

Tested on: Plasmodium falciparum
Assay: Antimalarial activity against ring stage Plasmodium falciparum 3D7 infected in human erythrocytes incubated for 48 to 50 hrs by YOYO-1 staining based FACS analysis
Type: functional, organism-based
Settings: 3D7, Erythrocyte

Compound | IC50 [µM]
CCc1nc(N)nc(N)c1-c1ccc(Cl)cc1 [PYRIMETHAMINE] | 0.015
